# Literature values, collected in patent publication US20040115708A1, “Method of screening agents for the treatment and prevention of cancer and cachexia and the new use of specific agents for the treatment and prevention of cancer and cachexia” (priority 2002, published 2004).
# Assays:
# [1] = test system: 8-Hydroxy-deoxyguanosine (8-OH-dG) in lung DNA
# [2] = test system: cancer in NNK treated animals; details: consumption of EGCG
Molecule,8-OH-dG (hydroxyl radical-caused DNA adduct) level ([1]; mice treated with NNK),"levels of 8-OH-dG in lung DNA ([1]; consumption of EGCG, NNK treated animals)",incidence of cancer [2]
"CN(CCCC(=O)c1cccnc1)N=O [NNK, 4-(methyInitrosamino)-1-(3-pyridyl)-1-butanone]",elevated,,
(−)-epigallocatechin gallate,,significantly lowers,decreases
